Experimental data as given in PubChem BioAssay (NCI).
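Dose response: 5 concentrations. Exposure: 48 h. Format: 96-well plates. Endpoint: linear interpolation; highest concentration if not reached. GI50 = concentration required for 50% inhibition of growth. TGI marks complete inhibition of growth.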

Tests used:
Assay in all cases: DTP human tumour cell line panel, 48 h
LOX IMVI melanoma = tested on: LOX IMVI melanoma
MOLT-4 leukemia = tested on: MOLT-4 leukemia
PC-3 prostate = tested on: PC-3 prostate
UO-31 renal = tested on: UO-31 renal
RPMI-8226 leukemia = tested on: RPMI-8226 leukemia
CAKI-1 renal = tested on: CAKI-1 renal
MCF7 breast = tested on: MCF7 breast
SK-MEL-5 melanoma = tested on: SK-MEL-5 melanoma
RXF 393 renal = tested on: RXF 393 renal
SW-620 colon = tested on: SW-620 colon
HCT-116 colon = tested on: HCT-116 colon
MALME-3M melanoma = tested on: MALME-3M melanoma
NCI/ADR-RES ovarian = tested on: NCI/ADR-RES ovarian
BT-549 breast = tested on: BT-549 breast
786-0 renal = tested on: 786-0 renal
UACC-62 melanoma = tested on: UACC-62 melanoma
SNB-75 CNS = tested on: SNB-75 CNS
M14 melanoma = tested on: M14 melanoma
HCC-2998 colon = tested on: HCC-2998 colon
HL-60(TB) leukemia = tested on: HL-60(TB) leukemia
A498 renal = tested on: A498 renal
SK-MEL-28 melanoma = tested on: SK-MEL-28 melanoma
SN12C renal = tested on: SN12C renal
NCI-H23 lung = tested on: NCI-H23 lung
ACHN renal = tested on: ACHN renal
HCT-15 colon = tested on: HCT-15 colon
U251 CNS = tested on: U251 CNS
IGROV1 ovarian = tested on: IGROV1 ovarian
SF-539 CNS = tested on: SF-539 CNS
SF-268 CNS = tested on: SF-268 CNS
SNB-19 CNS = tested on: SNB-19 CNS
NCI-H226 lung = tested on: NCI-H226 lung
OVCAR-3 ovarian = tested on: OVCAR-3 ovarian
NCI-H522 lung = tested on: NCI-H522 lung
UACC-257 melanoma = tested on: UACC-257 melanoma
MDA-MB-435 = tested on: MDA-MB-435
SK-OV-3 ovarian = tested on: SK-OV-3 ovarian
A549 NSCLC = tested on: A549 NSCLC
TK-10 renal = tested on: TK-10 renal
KM12 colon = tested on: KM12 colon
OVCAR-5 ovarian = tested on: OVCAR-5 ovarian
SF-295 CNS = tested on: SF-295 CNS
NCI-H460 lung = tested on: NCI-H460 lung
MDA-MB-231 breast = tested on: MDA-MB-231 breast
SK-MEL-2 melanoma = tested on: SK-MEL-2 melanoma
K-562 leukemia = tested on: K-562 leukemia
DU-145 prostate = tested on: DU-145 prostate
HT29 colon = tested on: HT29 colon
CCRF-CEM leukemia = tested on: CCRF-CEM leukemia
OVCAR-8 ovarian = tested on: OVCAR-8 ovarian
COLO 205 colon = tested on: COLO 205 colon
EKVX NSCLC = tested on: EKVX NSCLC
HS 578T breast = tested on: HS 578T breast
HOP-92 NSCLC = tested on: HOP-92 NSCLC
SR leukemia = tested on: SR leukemia
T-47D breast = tested on: T-47D breast
HOP-62 NSCLC = tested on: HOP-62 NSCLC

## O=c1[nH]c2cc3[nH]c(=O)c(=O)[nH]c3cc2[nH]c1=O
LOX IMVI melanoma
  TGI: > 100 µM
MOLT-4 leukemia
  TGI: > 100 µM
PC-3 prostate
  TGI: > 100 µM
UO-31 renal
  TGI: > 100 µM
RPMI-8226 leukemia
  TGI: > 100 µM
CAKI-1 renal
  TGI: > 100 µM
MCF7 breast
  TGI: > 100 µM
SK-MEL-5 melanoma
  TGI: > 100 µM
RXF 393 renal
  TGI: > 100 µM
SW-620 colon
  TGI: > 100 µM
HCT-116 colon
  TGI: > 100 µM
MALME-3M melanoma
  TGI: > 100 µM
NCI/ADR-RES ovarian
  TGI: > 100 µM
BT-549 breast
  TGI: > 100 µM
786-0 renal
  TGI: > 100 µM
UACC-62 melanoma
  TGI: > 100 µM
SNB-75 CNS
  TGI: > 100 µM
M14 melanoma
  TGI: > 100 µM
HCC-2998 colon
  TGI: > 100 µM
HL-60(TB) leukemia
  TGI: > 100 µM
A498 renal
  TGI: > 100 µM
SK-MEL-28 melanoma
  TGI: > 100 µM
SN12C renal
  TGI: > 100 µM
NCI-H23 lung
  TGI: > 100 µM
ACHN renal
  TGI: > 100 µM
HCT-15 colon
  TGI: > 100 µM
U251 CNS
  TGI: > 100 µM
IGROV1 ovarian
  TGI: > 100 µM
SF-539 CNS
  TGI: > 100 µM
SF-268 CNS
  TGI: > 100 µM
SNB-19 CNS
  TGI: > 100 µM
NCI-H226 lung
  TGI: > 100 µM
OVCAR-3 ovarian
  TGI: > 100 µM
NCI-H522 lung
  TGI: > 100 µM
UACC-257 melanoma
  TGI: > 100 µM
MDA-MB-435
  TGI: > 100 µM
SK-OV-3 ovarian
  TGI: > 100 µM
A549 NSCLC
  TGI: > 100 µM
TK-10 renal
  TGI: > 100 µM
KM12 colon
  TGI: > 100 µM
OVCAR-5 ovarian
  TGI: > 100 µM
SF-295 CNS
  TGI: > 100 µM
NCI-H460 lung
  TGI: > 100 µM
MDA-MB-231 breast
  TGI: > 100 µM
SK-MEL-2 melanoma
  TGI: > 100 µM
K-562 leukemia
  TGI: > 100 µM
DU-145 prostate
  TGI: > 100 µM
HT29 colon
  TGI: > 100 µM
CCRF-CEM leukemia
  TGI: > 100 µM
OVCAR-8 ovarian
  TGI: > 100 µM
COLO 205 colon
  TGI: > 100 µM
EKVX NSCLC
  TGI: > 100 µM
HS 578T breast
  TGI: > 100 µM

## COc1cc(/C=C2\CCCC3=C2N=C2SC(C)=CN2C3c2cc(OC)c(OC)c(OC)c2)cc(OC)c1OC (configuration not stated)
MOLT-4 leukemia
  GI50: 1.77 µM
  TGI: 6.43 µM
PC-3 prostate
  GI50: 2.19 µM
  TGI: > 100 µM
RPMI-8226 leukemia
  GI50: 0.391 µM
  TGI: 2.11 µM
CAKI-1 renal
  GI50: 2.55 µM
  TGI: > 100 µM
MCF7 breast
  GI50: 2.98 µM
  TGI: > 100 µM
HOP-92 NSCLC
  GI50: 1.46 µM
  TGI: 4.27 µM
HCT-116 colon
  GI50: 0.692 µM
  TGI: 2.01 µM
NCI/ADR-RES ovarian
  GI50: 0.334 µM
  TGI: > 100 µM
SN12C renal
  GI50: 2.44 µM
  TGI: > 100 µM
SF-539 CNS
  GI50: 3.09 µM
  TGI: > 100 µM
SR leukemia
  GI50: 0.399 µM
  TGI: 2.01 µM
MDA-MB-231 breast
  GI50: 2.88 µM
  TGI: > 100 µM
T-47D breast
  GI50: 3.16 µM
  TGI: > 100 µM
DU-145 prostate
  GI50: 2.76 µM
  TGI: > 100 µM
HOP-62 NSCLC
  GI50: 1.89 µM
  TGI: > 100 µM
CCRF-CEM leukemia
  GI50: 0.615 µM
  TGI: 4.14 µM
OVCAR-8 ovarian
  GI50: 0.385 µM
  TGI: 3.09 µM
